{"source": "patent US9186390B2", "about": "“Methods and uses of TIE2 binding and/or activating agents” (Sunnybrook Health Sciences Center, priority 2010, dated 2015)", "key": {"[1]": {"tested_on": "AT derm mice (pTek-tTA:pTetOS-Tek)", "test": "Atopic dermatitis (AT derm) transgenic mouse model and wild-type littermates, 30-day Vasculotide treatment", "type": "in vivo, CD1 mice", "description": "Briefly, construction of the driver transgene, pTek-tTA, and the responder transgenes, pTetOS-Tek, pTetos-Ang1, and pTetos-Ang2 have been described previously. All transgenic lines were maintained and genotyped as previously described (Voskas et al. (2005) Am. J. Pathol. 166(3):843-855, Ward et al. (2004) Am. J. Pathol. 165(3):889-899, Bureau et al. (2006) Am. J. Physiol. Heart Circ. Physiol. 291(2):H948-965). Males were housed with a single female for 14 to 20 days and then separated into individual cages. CD1 mice (an outbred mouse line) were maintained in a barrier facility. All adult mice used in these studies were 2 to 6 months old.\nMouse skin tissue was fixed in 4% paraformaldehyde (Sigma, St. Louis, Mo.) for 16 hours at 4 degrees Celsius, and transferred to 70% ethanol. Tissues were subsequently paraffin embedded and sectioned at 4 μM on SuperFrost glass slides. Tissue slides were stained for hematoxylin and eosin using standard techniques. For immunohistochemistry, anti-E-Selectin (rat; Pharmingen, La Jolla, Calif.), anti-VCAM1 (rat; Pharmingen), anti-ICAM1 (Hamster; Pharmingen, La Jolla, Calif.), primary antibodies were detected using biotinylated secondary antibodies as described in the Vectastain Elite ABC kit (Vector Laboratories, Burlingame, Calif.). Slides were processed and counterstained with methyl green using standard techniques. Slides were analyzed and photos were processed using a Leica compound light microscope coupled to a Leica DFC300FX camera (Wetzlar, Germany). Skin tissue was taken (biopsy) at day 0, prior to initiation of treatment and at 30 days. Gross phenotypic examination was conducted and mice were photographed in a standard format using a Digital Canon Eos Rebel.\nBlood was collected from all mice on day 0 (prior to treatment) and day 30 (after 30 days of treatment). On day 0, approximately 50 μl was collected via tail vein puncture into a lithium heparin micro tube. Day 30 blood was collected via cardiac puncture into a lithium heparin micro tube. Both blood samples were prepared for storage and subsequent analysis using Phosflow Lyse/Fix Buffer (BD Biosciences, Franklin Lakes, N.J.), according to manufacturers instructions. Cells were stained for IgE versus free FITC and characteristic populations of basophils and eosinophils were identified.\nNormal and double transgenic (pTek-tTA:pTetOS-Tek) CD1 mice were injected intra peritoneally with either sterile PBS, pH 7.4 (vehicle) or Vasculotide (40 μg/kg) every three days for the period of 30 days. Mice were observed closely during this period for phenotypic resolution and/or any potential ill effects.\nPlasma was collected in lithium/heparin microtubes from all mice following 30 days of treatment with Vasculotide or vehicle. Plasma was diluted 1:8 in sample diluent (BD Biosciences, Franklin Lakes, N.J.). A multiplex analysis of 12 different mouse cytokines was examined according to manufacturer's instructions. Analysis and cytokine/chemokine quantification was performed using the manufacturers FCAP software package (BD Biosciences, Franklin Lakes, N.J.).\nBlood was collected from mice as previously described. Separated plasma was diluted 1:4 in calibrator diluent according to manufacturer's specifications (R&D Biosystems, Minneapolis, Minn. USA). All aspects of the assay were conducted according to manufacturer's directions. Quantification of plasma eotaxin concentrations was performed by linear regression analysis from assessment of defined amounts of eotaxin standard."}, "Eo/B progenitors": {"tested_on": "Eo/B progenitors", "test": "Modulation of eosinophil/basophil progenitors (Eo/B-CFU)", "type": "cell-based", "details": "preliminary data", "experimental": "Thus, Eo/B from mice and healthy donors are isolated. Eosinophils from the periphery or bone marrow are enriched by magnetic bead sorting using anti CD125 (IL-5Ra) conjugated to magnetic particles. These cells preparations are stimulated with either recombinant Ang1 or Vasculotide and different cellular parameters are measured, including cellular growth, apoptosis, migration and Tie2-specific cellular signaling.\nTo examine the effect of Vasculotide on Eo/B progenitors, bone marrow colony assays are performed. Human bone marrow preparations are purchased from Stem Cell Technologies (Vancouver, BC) and murine bone marrow are obtained by flushing femurs of normal mice. Non-adherent mononuclear cells are cultured in MethoCult supplemented with IL-5 to optimize for eosinophil/basophil colony formation (Eo/B-CFU). […] The appearance of Eo/B-CFU is measured.\nEo/Bs and their progenitors are harvested from Vasculotide treated asthmatic animals from the periphery or bone marrow. In order to establish an Eo/B cellular profile treated and non-treated animals are harvested on week 1, 2, 4 and 6 and the number of Eo/Bs in the periphery, bone marrow and progenitors is determined. The number of peripheral and bone marrow eosinophils is determined by flow cytometry analysis using Ly6G, CD11b, IgE and free FITC markers. Eo/B progenitors in the bone marrow are measured by Eo/B-CFU assay."}, "[2]": {"details": "AT derm and wild-type mice, 30 days treatment"}, "[3]": {"details": "AT derm mice, skin and underlying muscle, 40 μg/kg every 3 days for 30 days"}, "[4]": {"details": "wild-type (or single transgenic) mice, 30 days, p=0.0027"}}, "note": "Entries after “also recorded” stand apart in the source; their conditions may differ."}
{"substance": "Vasculotide: Modified T7 peptide (CHHHRHSF, SEQ ID NO:2) conjugated to 10 kDa tetrameric polyethylene glycol-maleimide; Tie2 binding peptide mimetic", "values": [{"measurement": "body weight change during 30-day treatment", "setting": "[1]; 40 μg/kg every 3 days for 30 days, vs PBS", "result": "no statistically significant alteration; also recorded: no statistically detectable alteration"}, {"measurement": "plasma eotaxin levels (ELISA)", "setting": "[1]; AT Derm mice vs PBS treated AT Derm mice, p=0.0208", "result": "statistically significant decrease"}, {"measurement": "basophil numbers in peripheral blood (FACS)", "setting": "[1]; [2]", "result": "marked reduction; also recorded: Decreased numbers"}, {"measurement": "eosinophil numbers in peripheral blood (FACS)", "setting": "[1]; [2]", "result": "marked reduction; also recorded: Decreased numbers"}, {"measurement": "number of granulocytes in the bone marrow", "setting": "[1]; AT derm and wild-type mice, treated or untreated", "result": "unchanged"}, {"measurement": "gross phenotype: erythema, micro-haemorrhages of the ears, scaly plaque formation on the tail", "setting": "[1]; AT derm mice (moderate or severe), 40 μg/kg every 3 days for 30 days", "result": "complete or almost complete resolution; also recorded: Gross phenotypic improvement"}, {"measurement": "plasma IL-1β (cytometric bead array)", "setting": "[1]; AT derm mice vs PBS-treated AT derm mice, 30 days, p=0.0492", "result": "reduction"}, {"measurement": "erythema after the third dose (9 days)", "setting": "[1]; AT derm mice, 40 μg/kg every three days", "result": "reduction in erythema"}, {"measurement": "epidermal hyperplasia and infiltration of leukocytes (H&E staining of skin)", "setting": "[1]; AT derm mice, 30 days treatment vs PBS", "result": "dramatic reduction; also recorded: marked reduction"}, {"measurement": "E-selectin expression (immunohistochemistry)", "setting": "[1]; [3]", "result": "very low or absent levels of positive staining; also recorded: dramatic reduction"}, {"measurement": "ICAM1 expression (immunohistochemistry)", "setting": "[1]; [3]", "result": "very low or absent levels of positive staining; also recorded: dramatic reduction"}, {"measurement": "VCAM1 expression (immunohistochemistry)", "setting": "[1]; [3]", "result": "very low or absent levels of positive staining; also recorded: dramatic reduction"}, {"measurement": "neutrophils in peripheral blood (FACS)", "setting": "[1]; control and AT-Derm mice, 30 days treatment", "result": "No effects"}, {"measurement": "plasma IL-5 (cytometric bead array)", "setting": "[1]; [4]", "result": "statistically significant decrease"}, {"measurement": "plasma IL-13 (cytometric bead array)", "setting": "[1]; [4]", "result": "statistically significant decrease"}, {"measurement": "plasma MIP1b (cytometric bead array)", "setting": "[1]; wild-type (or single transgenic) mice, 30 days, p=0.003", "result": "statistically significant decrease"}, {"measurement": "plasma IL-9 (cytometric bead array)", "setting": "[1]; wild-type (or single transgenic) mice, 30 days, p=0.0079", "result": "statistically significant decrease"}, {"measurement": "plasma MCP1 (cytometric bead array)", "setting": "[1]; wild-type (or single transgenic) mice, 30 days, p=0.0116", "result": "statistically significant decrease"}, {"measurement": "plasma MIG (cytometric bead array)", "setting": "[1]; wild-type (or single transgenic) mice, 30 days, p=0.0117", "result": "statistically significant decrease"}, {"measurement": "plasma TNF-α (cytometric bead array)", "setting": "[1]; wild-type (or single transgenic) mice, 30 days, p=0.0309", "result": "statistically significant decrease"}, {"measurement": "plasma MIP1a (cytometric bead array)", "setting": "[1]; wild-type (or single transgenic) mice, 30 days, p=0.0473", "result": "statistically significant decrease"}, {"measurement": "plasma IL-17 (cytometric bead array)", "setting": "[1]; wild-type (or single transgenic) mice, 30 days, p=0.0492", "result": "statistically significant decrease"}, {"measurement": "plasma IL-12/IL-23 p40 (cytometric bead array)", "setting": "[1]; wild-type (or single transgenic) mice, 30 days, p=0.0494", "result": "statistically significant decrease"}, {"measurement": "overt effects / appearance of single transgenic or wild-type littermates", "setting": "[1]; wild-type or single transgenic mice, 40 μg/kg every three days", "result": "no overt effects; also recorded: indistinguishable from PBS-treated"}, {"measurement": "effect on Eo/B progenitors", "setting": "Eo/B progenitors", "result": "impacts the Eo/B progenitors directly"}]}
